Reference: paper PMC11046469, “Leveraging a Phage-Encoded Noncanonical Amino Acid: A Novel Pathway to Potent and Selective Epigenetic Reader Protein Inhibitors” (ACS Central Science, 2024)
Where a SMILES comes first, the peptide text is derived from it. The star is where a group is joined. Oxazole(5-CO) = O=C(c1cnco1)*; Crotonyl(E) = C/C=C/C(=O)*; 2Furoyl = O=C(c1ccco1)*; Butyryl = CCCC(=O)*

The compounds below were run against T1, AF9 YEATS (His-AF9) (Homo sapiens, UniProt P42568) (assay: Biolayer interferometry (BLI) binding to AF9 YEATS).
T1 construct: His-AF9 (aa 1-149, EpiCypher); purchased EpiCypher
T1 sequence (P42568 1-149): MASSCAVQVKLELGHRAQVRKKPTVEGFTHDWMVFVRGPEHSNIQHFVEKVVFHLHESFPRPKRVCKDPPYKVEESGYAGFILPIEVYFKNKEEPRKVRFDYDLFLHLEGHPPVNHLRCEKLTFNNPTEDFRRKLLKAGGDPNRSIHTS
Experimental: These potent inhibitors were then tested to confirm their selectivity for ENL YEATS over AF9 YEATS since the two YEATS domains share high sequence and structure homology. One potential of using ncAA-containing phage display for active site-directed ligand search is the possibility of amino acids flanking the ncAA in a selected peptide to selectively engage the target over a close homologue. We wanted to validate this potential as well. Selective targeting of ENL YEATS is also preferred in leukemia interventions as it plays a pivotal role in the progression and maintenance of several AMLs and poses minimal harm to normal hematopoietic stem cells upon inhibition. […] We propose that the selectivity arises from the peptide residues interacting with surface areas adjacent to the active site of ENL YEATS. […] Similarly, BLI analyses were conducted to examine preferential binding of inhibitors to ENL YEATS. […] Two previous publications have documented peptide-based YEATS inhibitors featuring alkylated lysine residues.[42],[43] […]
Biolayer Interferometry to Validate ENL Ligands:
His-ENL, His-AF9 (aa 1-149, EpiCypher), His-GAS41 (aa 15-160, EpiCypher), and YEATS2-His (aa 200-345, EpiCypher) were reconstituted in water and diluted into assay buffer (20mM Tris, 300 mM NaCl, pH 7.9) for immobilization onto Octet Ni-NTA biosensors (Sartorius). Lyophilized peptides were dissolved in DMF and diluted to designated concentrations in assay buffer. Biolayer interferometry assays were performed in 96 well plates (GreinerBio-One, polypropylene, flat-bottom) using an Octet Red96 System (Sartorius). Wells were filled with 200 μL of assay buffer, blocking buffer (assay buffer + 0.1% BSA), protein solution, peptide solution, regeneration solution, and reload solution. For immobilization, His-tagged proteins were immobilized onto Ni-NTA sensors at 20 for 600 s. Sensors were then dipped into blocking buffer for 180 s, assay […] buffer for 300 s, peptide solution for 300 s, and back to assay buffer for 300 s. If multiple samples were tested, Ni-NTA sensors can be reconditioned in regeneration (10 mM glycine, pH 1.7) solution followed by reload solution (10 mM NiCl2) for 30 and 60 s, respectively. Measurements were carried out at 30 °C. Data were analyzed within the ForteBio Data Analysis software. […]
The AlphaScreen assay was carried out in 384-well plates. […] AlphaScreen-signals were detected by a multi-mode microplate reader (BioTeK Synergy Neo2) equipped with an Alpha-laser (PerkinElmer). The KD value was determined from the plot using nonlinear regression of variable slope (four parameters) and curve fitting performed in GraphPad Prism. […]
The AlphaScreen assay conditions are essential the same as the previous described. […] IC50 values were determined from the plot using […]
`CCCC(=O)NCCCC[C@H](NC(=O)[C@H](Cc1ccc(O)cc1)NC(=O)[C@H](CS)NC(=O)[C@H](Cc1ccc(O)cc1)NC(=O)[C@@H](NC(=O)[C@H](CC(=O)O)NC(=O)[C@@H](N)Cc1ccc(O)cc1)C(C)C)C(N)=O` [ENL-S1] (H-YDVYCYK(Butyryl)-NH2) gave a Kd of 205 nM. For `C/C=C/C(=O)NCCCC[C@H](NC(=O)[C@H](Cc1ccc(O)cc1)NC(=O)[C@H](CS)NC(=O)[C@H](Cc1ccc(O)cc1)NC(=O)[C@@H](NC(=O)[C@H](CC(=O)O)NC(=O)[C@@H](N)Cc1ccc(O)cc1)C(C)C)C(N)=O` [ENL-S1c] (H-YDVYCYK(Crotonyl(E))-NH2), the Kd was 147 nM. Compound `CC(C)[C@H](NC(=O)[C@H](CC(=O)O)NC(=O)[C@@H](N)Cc1ccc(O)cc1)C(=O)N[C@@H](Cc1ccc(O)cc1)C(=O)N[C@@H](CS)C(=O)N[C@@H](Cc1ccc(O)cc1)C(=O)N[C@@H](CCCCNC(=O)c1ccco1)C(N)=O` [ENL-S1f] (H-YDVYCYK(2Furoyl)-NH2) has a Kd of 144 nM. Compound `CC(C)[C@H](NC(=O)[C@H](CC(=O)O)NC(=O)[C@@H](N)Cc1ccc(O)cc1)C(=O)N[C@@H](Cc1ccc(O)cc1)C(=O)N[C@@H](CS)C(=O)N[C@@H](Cc1ccc(O)cc1)C(=O)N[C@@H](CCCCNC(=O)c1cnco1)C(N)=O` [ENL-S1o] (H-YDVYCYK(Oxazole(5-CO))-NH2) has a Kd of 55.1 nM.
